The source of these data is publication PMC4243815, “A non-pediocin low molecular weight antimicrobial peptide produced by Pediococcus pentosaceus strain IE-3 shows increased activity under reducing environment” (BMC Microbiology, 2014).

Data set [1] in a line: Effect of pH on antimicrobial activity of the purified peptide. In kind it is physicochemical.
Description: (§1) The sensitivity of the bacteriocin towards different pH, temperatures and proteases was evaluated using purified bacteriocin. The purified peptide was incubated between pH values 2.0-10.0 and temperatures including 80, 100°C for 30 min and 120°C for 15 min. Antimicrobial peptide (200 μg) was incubated with various proteolytic enzymes such as trypsin (10 μg/ml, Sigma, USA), chymotrypsin (5 μg/ml, Sigma, USA) and proteinase K (5 units, Sigma, USA) in 100 mM Tris HCl buffer pH 8.0 (with 10 mM CaCl2) at 30°C for 6 h to determine their effect. The enzyme activity was terminated by heating the reaction mix at 80°C and subsequently used for antimicrobial activity assay. To test the effect of denaturant like DTT (BioRad, USA) on antimicrobial activity of the peptide, it was incubated with 50 to 150 mM DTT at room temperature for 1 h and used for growth inhibition assay. Hydrogen peroxide induced oxidation was tested by incubating the purified peptide with 100 mM concentration of hydrogen peroxide (Merck, India) for 1 h at room temperature [36] and activity was tested by well diffusion assay.
Data set [2] in a line: Effect of DTT on antimicrobial activity of the purified peptide. Conditions: 1 h/RT, growth inhibition assay.
Description: as §1
The test system of the next data set is trypsin. Nature of the data set: Effect of proteolytic enzymes on antimicrobial activity. Particulars: 200 μg peptide; trypsin 10 μg/ml; 100 mM Tris HCl pH 8.0 with 10 mM CaCl2; 30°C, 6 h; read-out antimicrobial assay. The procedure:
The sensitivity of the bacteriocin towards different pH, temperatures and proteases was evaluated using purified bacteriocin. The purified peptide was incubated between pH values 2.0-10.0 and temperatures including 80, 100°C for 30 min and 120°C for 15 min. Antimicrobial peptide (200 μg) was incubated with various proteolytic enzymes such as trypsin (10 μg/ml, Sigma, USA), chymotrypsin (5 μg/ml, Sigma, USA) and proteinase K (5 units, Sigma, USA) in 100 mM Tris HCl buffer pH 8.0 (with 10 mM CaCl2) at 30°C for 6 h to determine their effect. The enzyme activity was terminated by heating the reaction mix at 80°C and subsequently used for antimicrobial activity assay. To test the effect of denaturant like DTT (BioRad, USA) on antimicrobial activity of the peptide, it was incubated with 50 to 150 mM DTT at room temperature for 1 h and used for growth inhibition assay. Hydrogen peroxide induced oxidation was tested by incubating the purified peptide with 100 mM concentration of hydrogen peroxide (Merck, India) for 1 h at room temperature and activity was tested by well diffusion assay.

The next data set concerns the target T1, proteinase K (Parengyodontium album, UniProt P06873).
T1 construct: purchased Sigma, USA
The description is as above. Particulars: 200 μg peptide; proteinase K 5 units; 100 mM Tris HCl pH 8.0 with 10 mM CaCl2; 30°C, 6 h; read-out antimicrobial assay.

Data set [3] is described as follows: Hydrogen peroxide induced oxidation, activity by well diffusion assay. In kind it is physicochemical. Particulars: 100 mM hydrogen peroxide, 1 h, room temperature.
Description: as §1
The nature of data set [4]: Storage stability of the purified peptide. It is filed as physicochemical.
Another data set has as its system M. luteus. In kind it is cell-based, Micrococcus luteus. Particulars: 16 h. The procedure:
The MIC was determined for various indicator strains using a microtiter plate dilution assay as described earlier. Cell growth was measured by observing OD at 600 nm at 16 h time interval using microtiter plate reader (Multiskan spectrum, Thermo, USA). The protein concentration was determined by BCA protein concentration estimation kit (Thermo, USA) following instructions of the manufacturer. For MIC determination of DTT treated peptide, the DTT solution was filter sterilized and final 100 mM concentration was used to treat peptide.

The subject of the next data set is amylase. Nature of the data set: Effect of amylase treatment on antimicrobial activity.
Data set [5] concerns pepsin, trypsin, chymotrypsin, proteinase K and pronase E. Conditions: cited from earlier work. The text has this:
Bacteria produces different kinds of antimicrobial substances including ribosomally synthesized bacteriocins and non-ribosomally synthesized antibiotics or lipopeptides as a part of their defense strategies in complex environments such as fermented foods and the human gut. Members belonging to the lactic acid bacteria (LAB) family with ability to produce bacteriocins are frequently found in these environments. LAB strains are recognized as GRAS (Generally Regarded As Safe) microorganisms and have been studied in detail for biotechnological applications together with the bacteriocins prod ...

Values after ≈ are worked out from the molar mass of the structure shown. Ends that are not written are not given here. Peptide text beside a SMILES is read from it.

T1 sequence (P06873 106-384): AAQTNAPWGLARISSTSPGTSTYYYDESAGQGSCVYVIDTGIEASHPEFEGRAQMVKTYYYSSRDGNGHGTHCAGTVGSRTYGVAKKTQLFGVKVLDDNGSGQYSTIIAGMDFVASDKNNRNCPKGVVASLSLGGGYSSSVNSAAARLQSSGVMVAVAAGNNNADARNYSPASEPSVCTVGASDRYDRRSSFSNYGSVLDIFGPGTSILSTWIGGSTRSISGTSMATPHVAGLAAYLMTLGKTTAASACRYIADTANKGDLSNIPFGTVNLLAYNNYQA

In general, MIC refers to the smallest concentration in the dilution series that meets the test's criterion for growth inhibition. A lower MIC goes with inhibition by little substance. Take `CC(C)C[C@H](NC(=O)[C@H](Cc1c[nH]cn1)NC(=O)[C@@H](NC(=O)[C@H](CC(C)C)NC(=O)[C@H](CS)NC(=O)CNC(=O)[C@H](CCCNC(=N)N)NC(=O)[C@@H](NC(=O)[C@H](CS)NC(=O)[C@H](CO)NC(=O)[C@H](Cc1ccccc1)NC(=O)[C@@H]1CCCN1C(=O)[C@@H](NC(=O)[C@@H]1CCCN1C(=O)[C@H](C)N)C(C)C)[C@@H](C)O)[C@@H](C)O)C(=O)N[C@H](C(=O)O)C(C)C` [LMW peptide] (H-APVPFSCTRGCLTHLV-OH; N-terminus and C-terminus assumed): the “Residual activity (%)” value in data set [1] (pH 2, Overnight/ RT) amounted to 100.0%; in data set [1] (pH 3, Overnight/ RT) it was 100.0%; in [1] (pH 4, Overnight/ RT), 100.0%; in [1] (pH 5, Overnight/ RT), 100.0%; in [1] (pH 6, Overnight/ RT), 87.5%; in [1] (pH 7, Overnight/ RT), 75.0%. Also, the “Residual activity (%)” value in data set [1] (pH 8, Overnight/ RT) was 37.5%; in data set [1] (pH 9, Overnight/ RT), 25.0%; in data set [1] (pH 10, Overnight/ RT) it was 12.5%; in data set [2] (DTT 0 mM), 100.0%; in [2] (DTT 50 mM), 125.0%; in data set [2] (DTT 100 mM), 143.7%. Besides, the “Residual activity (%)” value in [2] (DTT 150 mM) was 143.7%. Further, the “Antimicrobial activity after incubation with proteolytic enzyme” value with trypsin and on proteinase K was “no reduction in activity” each time. The “Antimicrobial activity after incubation with H2O2” value in data set [3] was “did not show any antimicrobial activity”. Also, the “Antimicrobial activity during storage” value is listed as “significant reduction in antimicrobial activity” in [4] (purified peptide stored at room temperature, within 24 h) and “stable” in data set [4] (purified peptide stored at −20°C). This compound returned a minimal inhibitory concentration (MIC) in the data set with M. luteus of 6.3 µM (≈ 10.7 µg/mL). In addition, the “Antimicrobial activity upon treatment with amylase” value in the data set on amylase is “Stable activity”.
As for “pediocin PA-1: well-studied 4.6 kDa class IIa antimicrobial peptide (bacteriocin) from Pediococcus sp. (KYYGNGVTCGKHSCSVDWGKATTCIINNGAMAWATGGHQGNHKC; ends and bridges not checked; cysteine pairing not given here; UniProt P29430 19-62, looked up)”, the “Effect of proteases on activity” value in data set [5] is given as “inactivated”.
